Assay results from patent publication US20090270435A1 (priority 2006, published 2009).
Counter-ions that a name gives are not always drawn.

What follows are compounds tested against T1, ACC1 from rat liver (Rattus norvegicus, UniProt P11497) (assay: Direct inhibition of ACC1 activity (14C-bicarbonate incorporation)). Conditions: ACC1 from rat liver.
T1 construct: The livers (for ACC1 preparation) or skeletal muscle tissue (for ACC2 preparation) are removed; from tissue; host or cells: liver of male CD rats (fasted, then fed a high sucrose diet)
Assay type: biochemical
Description: [1] Preparation of ACC1 and ACC2.
Male CD rats weighing 150-200 g are fasted for 2 days and then fed a high sucrose diet (AIN-76A rodent diet; Cat # D10001, Research Diets Inc., New Brunswick, N.J.), for 3 days at which time they are sacrificed by CO2 asphyxiation. The livers (for ACC1 preparation) or skeletal muscle tissue (for ACC2 preparation) are removed, rinsed in ice-cold phosphate-buffered saline (PBS), and homogenized in 5 volumes of homogenization buffer (50 mM potassium phosphate, pH 7.5, 10 mM EDTA, 10 mM 2-mercaptoethanol, 2 mM benzamidine, 0.2 mM phenylmethylsulfonylfluoride (PMSF), 5 mg/L each leupeptin, aprotinin, and antitrypsin) in a Waring® blender for 1 minute at 4° C. All subsequent operations are carried out at 4° C. The homogenate is made 3% with respect to polyethylene glycol (PEG) by the addition of 50% PEG solution and centrifuged at 20,000×g for 15 minutes. The resulting supernatant is adjusted to 5% PEG with the addition of 50% PEG solution and stirred for 5 minutes. The pellet (contains ACC activity) is collected by centrifugation at 20,000×g for 20 minutes, rinsed with Ice-cold doubly distilled water to remove excess PEG and re-suspended in one-fourth the original homogenate volume with homogenization buffer. Ammonium sulfate (200 g/liter) is slowly added with stirring. After 45 minutes the enzyme is collected by centrifugation for 30 minutes at 20,000×g, re-suspended in 10 ml of 50 mM HEPES, pH7.5, 0.1 mM DTT, 1.0 mM EDTA, and 10% glycerol and desalted on a Sephadex™ G-25 column (2.5 cm-x 50 cm) (Pharmacia, Piscataway N.J. now GE Healthcare) […] equilibrated with the same buffer. The desalted enzyme preparation is stored in aliquots at −70° C. Immediately prior to use, frozen ACC1 or ACC2 aliquots are thawed, diluted to 500 μg/ml in buffer containing 50 mM HEPES, pH7.5, 1.0 mM MgCl2, 10 mM tripotassium citrate, 2.0 mM dithiothreitol (DTT), and 0.75 mg/ml fatty acid-free bovine serum albumin (BSA) and pre-incubated at 37° C. for 30 minutes.
[2] Measurement of ACC inhibition. The procedures for measuring ACC1 inhibition and ACC2 inhibition are identical except for the source of the isozyme. For measurement of ACC activity and assessment of ACC inhibition, test compounds are dissolved in dimethylsulfoxide (DMSO) and 1 μL aliquots are placed in 0.5 ml polypropylene tubes. Control tubes contain 1 μL of DMSO alone. Tubes are incubated at 37° C. in a constant temperature water bath. […] The reaction is then initiated by the addition of 10 μL of preincubated ACC fraction prepared as described above. After 7 minutes the reaction is terminated by the addition of 50 μL of 6N HCl and a 150 μL aliquot of the reaction mixture is transferred to glass scintillation vials and evaporated to dryness at 90° C. for at least 1 hour. The dried vials are then cooled, 0.5 ml of water and 5.5 ml of Ready Safe liquid scintillation fluid (Beckman Coulter Inc., Fullerton, Calif.) are added, and the radioactivity is determined using a liquid scintillation counter. Tubes that received HCl before ACC served as blanks.

Compound	IC50
O=C1CC2(CCN(C(=O)c3cccc4cn[nH]c34)CC2)Oc2ccccc21 [listing 1 of 2 here]	> 3000 nM
O=C1CC2(CCN(C(=O)c3cccc4cn[nH]c34)CC2)Oc2ccccc21 [listing 2 of 2 here]	3540 nM
1′-1H-indol ylcarbonyl)-6,7-dimethylspiro[chromene-2,4′-piperidin]-4(3H)-one trifluoroacetic acid salt [Ex. L14]	479 nM
1′-[(7-bromo-1H-indazol-6-yl)carbonyl]-6-chlorospiro[chromene-2,4′-piperidin]-4(3H)-one [Ex. G5]	> 1000 nM
5,7-dichloro-1′-(1H-indazol-7-ylcarbonyl)spiro[chromene-2,4′-piperidin]-4(3H)-one [Ex. H15]	1480 nM
5,7-dichloro-1′-[(7-chloro-1H-indazol-5-yl)carbonyl]spiro[chromene-2,4′-piperidin]-4(3H)-one [Ex. B9]	180 nM
6-chloro-1′-[(7-chloro-1H-indazol-5-yl)carbonyl]-7-fluorospiro[chromene-2,4′-piperidin]-4(3H)-one [Ex. B13]	287 nM
6-chloro-1′-[(7-chloro-1H-indazol-5-yl)carbonyl]spiro[chromene-2,4′-piperidin]-4(3H)-one [Ex. B8]	166 nM
COc1cccc2c1C(=O)CC1(CCN(C(=O)c3cc(Cl)c4[nH]ncc4c3)CC1)O2 [B6, 1′-[(7-chloro-1H-indazol-5-yl)carbonyl]-5-methoxyspiro[chromene-2,4′-piperidin]-4(3H)-one]	109 nM
Cc1cc2c(cc1C)C(=O)CC1(CCN(C(=O)c3cc(C)c4[nH]ncc4c3)CC1)O2 [Ex. A2, 6,7-dimethyl-1′-[(7-methyl-1H-indazol-5-yl)carbonyl]spiro-[chromene-2,4′-piperidin]-4(3H)-one trifluoroacetic acid salt]	30.1 nM
CNC(=O)c1ccc2c(c1)C(=O)CC1(CCN(C(=O)c3cc(C)c4[nH]ncc4c3)CC1)O2 [Ex. A5, N-methyl-1′-[(7-methyl-1H-indazol-5-yl)carbonyl]-4-oxo-3,4-dihydrospiro[chromene-2,4′-piperidine]-6-carboxamide]	29.5 nM
COc1cc(Cl)c2c(c1)OC1(CCN(C(=O)c3cc(C)c4[nH]ncc4c3)CC1)CC2=O [Ex. A6, 5-chloro-7-methoxy-1′-[(7-methyl-1H-indazol-5-yl)carbonyl]spiro[chromene-2,4′-piperidin]-4(3H)-one]	31.9 nM
Cc1cc2c(cc1Br)C(=O)CC1(CCN(C(=O)c3cc(C)c4[nH]ncc4c3)CC1)O2 [Ex. A8, 6-bromo-7-methyl-1′-[(7-methyl-1H-indazol-5-yl)carbonyl]spiro[chromene-2,4′-piperidin]-4(3H)-one]	32.6 nM
Cc1cc(C(=O)N2CCC3(CC2)CC(=O)c2cc(C(N)=O)ccc2O3)cc2cn[nH]c12 [Ex. A10, 1′-[(7-methyl-1H-indazol-5-yl)carbonyl]-4-oxo-3,4-dihydrospiro[chromene-2,4′-piperidine]-6-carboxamide]	38.2 nM
COC(=O)c1ccc2c(c1)C(=O)CC1(CCN(C(=O)c3cc(C)c4[nH]ncc4c3)CC1)O2 [Ex. A11, methyl 1-[(7-methyl-1H-indazol-5-yl)carbonyl]-4-oxo-3,4-dihydrospiro[chromene-2,4-piperidine]-6-carboxylate]	40 nM
Cc1cc(C(=O)N2CCC3(CC2)CC(=O)c2cc(Cl)c(Cl)cc2O3)cc2cn[nH]c12 [Ex. A14, 6,7-dichloro-1′-[(7-methyl-1H-indazol-5-yl)carbonyl]spiro[chromene-2,4′-piperidin]-4(3H)-one]	52 nM

Compound	IC50
Cc1ccc2c(c1)C(=O)CC1(CCN(C(=O)c3cc(C)c4[nH]ncc4c3)CC1)O2 [Ex. A15, 6-methyl-1′-[(7-methyl-1H-indazol-5-yl)carbonyl]spiro[chromene-2,4′-piperidin]-4(3H)-one]	53.6 nM
Cc1cc(C(=O)N2CCC3(CC2)CC(=O)c2ccc(Cl)cc2O3)cc2cn[nH]c12 [Ex. A17, 7-chloro-1′-[(7-methyl-1H-indazol-5-yl)carbonyl]spiro[chromene-2,4′-piperidin]-4(3H)-one]	70.5 nM
Cc1cc2c(c(C)c1Cl)C(=O)CC1(CCN(C(=O)c3cc(C)c4[nH]ncc4c3)CC1)O2 [Ex. A18, 6-chloro-5,7-dimethyl-1′-[(7-methyl-1H-indazol-5-yl)carbonyl]spiro[chromene-2,4′-piperidin]-4(3H)-one]	72 nM
COc1cc(Cl)cc2c1C(=O)CC1(CCN(C(=O)c3cc(C)c4[nH]ncc4c3)CC1)O2 [Ex. A19, 7-chloro-5-methoxy-1′-[(7-methyl-1H-indazol-5-yl)carbonyl]spiro[chromene-2,4′-piperidin]-4(3H)-one]	81.5 nM
Cc1cc(C(=O)N2CCC3(CC2)CC(=O)c2cc(C(F)(F)F)ccc2O3)cc2cn[nH]c12 [Ex. A20, 1′-[(7-methyl-1H-indazol-5-yl)carbonyl]-6-(trifluoromethyl)spiro[chromene-2,4′-piperidin]-4(3H)-one]	96.6 nM
Cc1cc(C(=O)N2CCC3(CC2)CC(=O)c2cc(F)c(Cl)cc2O3)cc2cn[nH]c12 [Ex. A22, 7-chloro-6-fluoro-1′-[(7-methyl-1H-indazol-5-yl)carbonyl]spiro[chromene-2,4′-piperidin]-4(3H)-one]	104 nM
Cc1cc(C(=O)N2CCC3(CC2)CC(=O)c2cc(C(C)C)ccc2O3)cc2cn[nH]c12 [Ex. A23, 6-isopropyl-1′-[(7-methyl-1H-indazol-5-yl)carbonyl]spiro[chromene-2,4′-piperidin]-4(3H)-one]	109 nM
COc1ccc2c(c1)OC1(CCN(C(=O)c3cc(C)c4[nH]ncc4c3)CC1)CC2=O [Ex. A24, 7-methoxy-1′-[(7-methyl-1H-indazol-5-yl)carbonyl]spiro[chromene-2,4′-piperidin]-4(3H)-one]	122 nM
COc1cccc2c1C(=O)CC1(CCN(C(=O)c3cc(C)c4[nH]ncc4c3)CC1)O2 [Ex. A25, 5-methoxy-1′-[(7-methyl-1H-indazol-5-yl)carbonyl]spiro[chromene-2,4′-piperidin]-4(3H)-one]	112 nM
Cc1cc(C(=O)N2CCC3(CC2)CC(=O)c2cc(Cl)ccc2O3)cc2cn[nH]c12 [Ex. A26, 6-chloro-1′-[(7-methyl-1H-indazol-5-yl)carbonyl]spiro[chromene-2,4′-piperidin]-4(3H)-one]	113 nM
Cc1cc(C(=O)N2CCC3(CC2)CC(=O)c2cc(C(=O)N(C)C)ccc2O3)cc2cn[nH]c12 [Ex. A27, N,N-dimethyl-1′-[(7-methyl-1H-indazol-5-yl)carbonyl]-4-oxo-3,4-dihydrospiro[chromene-2,4′-piperidine]-6-carboxamide]	125 nM
COc1cc(C)c2c(c1)OC1(CCN(C(=O)c3cc(C)c4[nH]ncc4c3)CC1)CC2=O [Ex. A28, 7-methoxy-5-methyl-1′-[(7-methyl-1H-indazol-5-yl)carbonyl]spiro[chromene-2,4′-piperidin]-4(3H)-one]	138 nM
Cc1cc(C)c2c(c1)OC1(CCN(C(=O)c3cc(C)c4[nH]ncc4c3)CC1)CC2=O [Ex. A29, 5,7-dimethyl-1′-[(7-methyl-1H-indazol-5-yl)carbonyl]spiro[chromene-2,4′-piperidin]-4(3H)-one]	146 nM
Cc1cc(C(=O)N2CCC3(CC2)CC(=O)c2c(Cl)cc(Cl)cc2O3)cc2cn[nH]c12 [Ex. A30, 5,7-dichloro-1′-[(7-methyl-1H-indazol-5-yl)carbonyl]spiro[chromene-2,4′-piperidin]-4(3H)-one]	209 nM
Cc1cc(C(=O)N2CCC3(CC2)CC(=O)c2cc(C#N)ccc2O3)cc2cn[nH]c12 [Ex. A31, 1′-[(7-methyl-1H-indazol-5-yl)carbonyl]-4-oxo-3,4-dihydrospiro[chromene-2,4-piperidine]+carbonitrile]	234 nM
Cc1cc(C(=O)N2CCC3(CC2)CC(=O)c2ccc(C#N)cc2O3)cc2cn[nH]c12 [Ex. A32, 1′-[(7-methyl-1H-indazol-5-yl)carbonyl]H-oxo-3,4-dihydrospiro[chromene-2,4′-piperidine]-7-carbonitrile]	277 nM
